Assay results taken from ChEMBL document CHEMBL3045993, “Expedient synthesis of some novel pregnane derivatives and their evaluation as anti-oxidant and anti-dyslipidemic agents” (2011).

What was measured:
Assay type in all cases: functional
Rattus norvegicus [1] = assay: Antidyslipidemic activity in Rattus norvegicus Charles Foster (rat) assessed as activation of post heparin lipolytic activity at 400 mg/kg, po after 18 hr relative to control
[2] = Antioxidant activity assessed as inhibition of xanthine oxidase-mediated superoxide anion release at 100 ug/ml after 30 min relative to control
Liver microsome = assay: Antioxidant activity in Rattus norvegicus (rat) liver microsomes assessed as inhibition of lipid peroxidation at 100 ug/ml after 90 min by thiobarbuteric acid method
[3] = Antioxidant activity assessed as inhibition of hydroxy radical generation at 100 ug/ml after 90 min by thiobarbuteric acid method
Rattus norvegicus [4] = assay: Antidyslipidemic activity in high fat diet fed Rattus norvegicus Charles Foster (rat) assessed as activation of cholesterol acyltransferase in plasma at 100 mg/kg, po administered QD for 30 days relative to control
Rattus norvegicus [5] = assay: Antidyslipidemic activity in high fat diet fed Rattus norvegicus Charles Foster (rat) assessed as inhibition of cholesterol-induced phospholipid level in plasma at 100 mg/kg, po administered QD for 30 days relative to control; conditions: 720 h
Rattus norvegicus [6] = assay: Antidyslipidemic activity in high fat diet fed Rattus norvegicus Charles Foster (rat) assessed as activation of liver phopholipase at 100 mg/kg, po administered QD for 30 days relative to control
Rattus norvegicus [7] = assay: Antidyslipidemic activity in Rattus norvegicus Charles Foster (rat) assessed as inhibition of triton WR1339-induced phospholipid in plasma at 100 mg/kg, po after 18 hr relative to control
Rattus norvegicus [8] = assay: Antidyslipidemic activity in Rattus norvegicus Charles Foster (rat) assessed as inhibition of triton WR1339-induced total cholesterol in plasma at 100 mg/kg, po after 18 hr relative to control; conditions: read-out: INH
Rattus norvegicus [9] = assay: Antidyslipidemic activity in Rattus norvegicus Charles Foster (rat) assessed as inhibition of triton WR1339-induced triglyceride in plasma at 100 mg/kg, po after 18 hr relative to control
Rattus norvegicus [10] = assay: Antidyslipidemic activity in Rattus norvegicus Charles Foster (rat) assessed as activation of post heparin lipolytic activity at 100 mg/kg, po after 18 hr relative to control

SMILES | Activity (Rattus norvegicus [1]) | Activity (Rattus norvegicus [4]) | inhibition in vivo at 100 mg/kg (Rattus norvegicus [5]) | Activity (Rattus norvegicus [6]) | also measured
C/C(=N\OC(C)C)C1=CC[C@H]2[C@@H]3CC=C4C[C@@H](O)CC[C@]4(C)[C@H]3CC[C@]12C | 23% | – | – | – | inhibition [2]: -9%
CC(=O)[C@@]1(O)[C@H](OCCO)C[C@H]2[C@@H]3CC=C4C[C@@H](O)CC[C@]4(C)[C@H]3CC[C@@]21C [3BETA,17ALPHA-DIHYDROXY-16ALPHA-(2-HYDROXY ETHOXY)PREGN-5-EN-20-ONE] | 21% | – | – | – | –
COCCO[C@@H]1C[C@H]2[C@@H]3CC=C4C[C@@H](O)CC[C@]4(C)[C@H]3CC[C@]2(C)[C@H]1[C@H](C)O [3BETA,20BETA-DIHYDROXY-16ALPHA-(2-METHOXY ETHOXY)-PREGN-5-EN] | 17% | – | – | – | inhibition (Liver microsome): -10%
C[C@H](O)[C@H]1[C@H](OCCOCCO)C[C@H]2[C@@H]3CC=C4C[C@@H](O)CC[C@]4(C)[C@H]3CC[C@]12C [3BETA,20BETA-DIHYDROXY-16ALPHA-[2(2-HYDROXYETHOXY)-ETHOXY]-PREGN-5-EN] | 17% | – | – | – | –
CC(=O)OC(C)CO[C@@H]1C[C@H]2[C@@H]3CC=C4C[C@@H](OC(C)=O)CC[C@]4(C)[C@H]3CC[C@]2(C)[C@H]1C(C)=O (stereo partly drawn) [3BETA-ACETOXY-16ALPHA-(2-ACETOXY PROPOXY)-PREGN-5-EN-20-ONE] | 13% | – | – | – | inhibition [3]: -9%
COCCO[C@@H]1C[C@H]2[C@@H]3CC=C4C[C@@H](OC(C)=O)CC[C@]4(C)[C@H]3CC[C@]2(C)[C@H]1C(C)=O [3BETA-ACETOXY-16ALPHA-(2-METHOXY ETHOXY)-PREGN-5-EN-20-ONE] | 18% | – | – | – | –
CC(=O)OCCOCCO[C@@H]1C[C@H]2[C@@H]3CC=C4C[C@@H](OC(C)=O)CC[C@]4(C)[C@H]3CC[C@]2(C)[C@H]1C(C)=O [3BETA-ACETOXY-16ALPHA-[2(2-ACETOXY ETHOXY)-ETHOXY]-PREGN-5-EN-20-ONE] | 23% | 20% | -22% | 15% | –
CC(=O)[C@H]1[C@H](c2cc(F)ccc2N)C[C@H]2[C@@H]3CC=C4C[C@@H](O)CC[C@]4(C)[C@H]3CC[C@@]21C [3BETA-HYDROXY-16ALPHA-(2-AMINO-5-FLUORO-PHENYL)-PREGN-5-EN-20-ONE] | 24% | 28% | -21% | 27% | –
CC(=O)[C@H]1[C@H](OCC(C)O)C[C@H]2[C@@H]3CC=C4C[C@@H](O)CC[C@]4(C)[C@H]3CC[C@@]21C (stereo partly drawn) [3BETA-HYDROXY-16ALPHA-(2-HYDROXY PROPOXY)PREGN-5-EN-20-ONE] | 21% | – | – | – | –
CC(=O)[C@H]1[C@H](Nc2ccc(Cl)cc2)C[C@H]2[C@@H]3CC=C4C[C@@H](O)CC[C@]4(C)[C@H]3CC[C@@]21C [3BETA-HYDROXY-16ALPHA-(4-CHLORO PHENYLAMINO)-PREGN-5-EN-20-ONE] | 31% | 23% | -25% | 18% | inhibition (Liver microsome): -8%
CC(=O)[C@H]1[C@H](OCCOCCO)C[C@H]2[C@@H]3CC=C4C[C@@H](O)CC[C@]4(C)[C@H]3CC[C@@]21C [3BETA-HYDROXY-16ALPHA-[2(2-HYDROXY ETHOXY)-ETHOXY]PREGN-5-EN-20-ONE] | 17% | – | – | – | –
COCCO[C@@H]1C[C@H]2[C@@H]3CC=C4C[C@@H](O)CC[C@]4(C)[C@H]3CC[C@]2(C)[C@H]1C(C)=O [3BETA-HYDROXY-16ALPHAA-(2-METHOXYETHOXY)PREGN-5-EN-20-ONE] | 18% | – | – | – | –
Cc1ccc(C)c(OCCCC(C)(C)C(=O)O)c1 [GEMFIBROZIL] | – | 31% | -31% | 33% | inhibition in vivo at 100 mg/kg (Rattus norvegicus [7]): -34%; inhibition in vivo at 100 mg/kg (Rattus norvegicus [8]): 36%; inhibition in vivo at 100 mg/kg (Rattus norvegicus [9]): 36%; Activity (Rattus norvegicus [10]): 32%
